Experimental data published in patent US9951094B2, “Phosphole compound and fluorescent dye containing the same” (NATIONAL UNIVERSITY CORPORATION NAGOYA UNIVERSITY, priority 2014, dated 2018).
Marks after values point to notes of the source that are not given here.

Legend:
Type in all cases: physicochemical
[1] = Fluorescence spectra in solvents
Experimental: (§1) The optical properties of compounds 1 to 3, 6b to 6d, 7a, and 7b were evaluated. Ultraviolet-visible (UV-Vis) absorption and fluorescence spectra were measured with an UV-Vis-NIR spectrophotometer UV-3150 (Shimadzu) and a fluorescence spectrophotometer F-4500 (Hitachi), respectively. Absolute fluorescence quantum yield was determined with an absolute PL quantum yield measurement instruments C9920-02 or C11347-01 (Hamamatsu Photonics). Sample solutions of all the samples were prepared using spectral grade solvents purchased from Nacalai Tesque, and were each measured with a 1 cm square quartz cuvette. The concentrations of each sample for the measurement of UV-Vis absorption spectra were set for ca. 10^−5 M. The concentrations of each sample for the measurement of fluorescence spectra were adjusted in a range where concentration quenching would not occur. For the measurement of absolute fluorescence quantum yield, each sample solution was deaerated by purging with an argon gas stream for several minutes prior to the measurements. The orientation polarizabilities Δf of hexane, ethyl acetate, and methanol, which are not shown in the Tables, were −0.000518, 0.201, and 0.309, respectively.

[2] = Absolute fluorescence quantum yield in solvents
Experimental: as §1

[3] = UV-Vis absorption spectra in solvents
Experimental: as §1

[4] = Photobleaching resistance, 403 nm laser irradiation of acetonitrile solutions; conditions: acetonitrile solution, 403 nm laser light, 120 minutes; FIG. 2
Experimental: Solutions of compounds 1, 2 (6a), 6b, 7a, 7b, and a known fluorescent dye Alexa-430 each in acetonitrile were prepared so that their absorbances are in the range from 0.39 to 0.44. The concentration of each compound in the solution was 2.35×10^−5 M for compound 1, 2.17×10^−5 M for compound 2 (6a), 1.25×10^−5 M for compound 6b, 3.30×10^−5 M for compound 7a, and 2.04×10^−5 M for compound 7b. […] Immediately after preparation of each acetonitrile solution, the molar absorption coefficient of the acetonitrile solution was measured. Then, the molar absorption coefficient of the acetonitrile solution was measured after each of irradiations with 403 nm laser light for 20 minutes, 60 minutes, and 120 minutes, and the relative absorbance was determined relative to the molar absorption coefficient before laser light irradiation (immediately after preparation of the solution).

[5] = cyclohexane, apparatus C11347-01, self-absorption correction
[6] = cyclohexane, apparatus C11347-01
[7] = ethyl acetate, apparatus C11347-01

Emission Maximum Wavelength λ em ([1]; CH2Cl2) | Emission Maximum Wavelength λ em ([1]; DMF) | Emission Maximum Wavelength λ em ([1]; benzene) | Fluorescence Quantum Yield φF [2, 5] | Absorption Maximum Wavelength λ max ([3]; CH2Cl2) | Molar Absorption Coefficient ϵ ([3]; CH2Cl2) | Absorption Maximum Wavelength λ max ([3]; DMF) | Molar Absorption Coefficient ϵ ([3]; DMF) | Structure (SMILES) | Emission Maximum Wavelength λ em ([1]; CH3CN) | Emission Maximum Wavelength λ em ([1]; EtOH) | Emission Maximum Wavelength λ em ([1]; cyclohexane) | Fluorescence Quantum Yield φF ([2]; CH3CN, apparatus C11347-01) | Absorption Maximum Wavelength λ max ([3]; CH3CN) | Absorption Maximum Wavelength λ max ([3]; EtOH) | Molar Absorption Coefficient ϵ ([3]; EtOH) | Absorption Maximum Wavelength λ max ([3]; cyclohexane) | Molar Absorption Coefficient ϵ ([3]; cyclohexane) | Fluorescence Quantum Yield φF ([2]; EtOH, apparatus C11347-01) | Molar Absorption Coefficient ϵ ([3]; CH3CN) | Fluorescence Quantum Yield φF [2, 6] | further results
561 nm | 598 nm | 531 nm | 0.92^a,c | 416 nm | 1.76 10^4M^−1 cm^−1 | 409 nm | 1.77 10^4M^−1 cm^−1 | O=P1(c2ccccc2)C(c2ccc(N(c3ccccc3)c3ccccc3)cc2)=C(c2ccccc2)c2ccccc21 (stereo not shown) [Compound 1, 2-[4-(N,N-diphenylamino)phenyl]-1,3-diphenylbenzo[b]phosphole-P-oxide] | 597 nm | 595 nm | 508 nm | 0.67^a | 404 nm | 417 nm | 1.68 10^4M^−1 cm^−1 | 412 nm | 1.82 10^4M^−1 cm^−1 | – | – | – | Fluorescence in various solvents from low-polarity to high-polarity solvents [1]: strong fluorescence; Emission Maximum Wavelength λ em ([1]; CHCl3): 551 nm; Shift of fluorescence wavelength as the polarity of the solvent increases ([1]; Table 1 solvents): shifted to the longer wavelength; Fluorescence Quantum Yield φF ([2]; CH2Cl2, apparatus C9920-02): 0.84^b; Fluorescence Quantum Yield φF ([2]; CHCl3, apparatus C9920-02): 0.89^b; Fluorescence Quantum Yield φF ([2]; DMF, apparatus C9920-02): 0.71^b; Fluorescence Quantum Yield φF ([2]; benzene, apparatus C9920-02): 0.89^b; Absorption Maximum Wavelength λ max ([3]; CHCl3): 418 nm; Molar Absorption Coefficient ϵ ([3]; CHCl3): 1.78 10^4M^−1 cm^−1; Absorption Maximum Wavelength λ max ([3]; benzene): 416 nm; Molar Absorption Coefficient ϵ ([3]; benzene): 1.88 10^4M^−1 cm^−1
543 nm | 564 nm | 497 nm | 0.93^b | 413 nm | 1.75 10^4M^−1 cm^−1 | 409 nm | 1.71 10^4M^−1 cm^−1 | O=P1(c2ccccc2)C(c2ccc(N(c3ccccc3)c3ccccc3)cc2)=Cc2ccccc21 (stereo not shown) [Compound 2, 2-[4-(N,N-diphenylamino)phenyl]-1-phenylbenzo[b]phosphole-P-oxide] | 571 nm | 565 nm | 456 nm | 0.61 | 406 nm | 416 nm | 1.78 10^4M^−1 cm^−1 | 410 nm | 1.95 10^4M^−1 cm^−1 | 0.57 | 1.77 10^4M^−1 cm^−1 | – | Fluorescence Quantum Yield φF ([2]; CH2Cl2, apparatus C11347-01): 0.91; Fluorescence Quantum Yield φF ([2]; DMF, apparatus C11347-01): 0.67; Fluorescence Quantum Yield φF ([2]; benzene, apparatus C11347-01): 0.97; Absorption Maximum Wavelength λ max ([3]; benzene): 414 nm; Molar Absorption Coefficient ϵ ([3]; benzene): 1.91 10^4M^−1 cm^−1
532 nm | 559 nm | 507 nm | 0.91^b | 412 nm | 1.71 10^4M^−1 cm^−1 | 412 nm | 1.73 10^4M^−1 cm^−1 | CN(C)c1ccc(C2=Cc3ccccc3P2(=O)c2ccccc2)cc1 (stereo not shown) [Compound 3, 2-[4-(N,N-dimethylamino)phenyl]-1-phenylbenzo[b]phosphole-P-oxide] | 558 nm | 565 nm | 456 nm | 0.89 | 408 nm | 415 nm | 1.69 10^4M^−1 cm^−1 | 401 nm | – | 0.82 | 1.73 10^4M^−1 cm^−1 | – | Fluorescence Quantum Yield φF ([2]; CH2Cl2, apparatus C11347-01): 0.93; Fluorescence Quantum Yield φF ([2]; DMF, apparatus C11347-01): 0.88; Absolute fluorescence quantum yield compared with compound 2 ([2]; Tables 2 and 3): higher absolute fluorescence quantum yield than compound 2; Fluorescence Quantum Yield φF ([2]; benzene, apparatus C11347-01): 0.95; Absorption Maximum Wavelength λ max ([3]; benzene): 410 nm; Molar Absorption Coefficient ϵ ([3]; benzene): 1.89 10^4M^−1 cm^−1
– | – | – | – | – | – | – | – | O=P1(c2ccccc2)C(c2cc3c4c(c2)CCCN4CCC3)=Cc2cc3ccccc3cc21 (stereo not shown) [Compound 6c] | 580 nm | 583 nm | 466 nm | 0.71 | 425 nm | 429 nm | 2.33 10^4M^−1 cm^−1 | 420 nm | 2.38 10^4M^−1 cm^−1 | 0.67 | 2.35 10^4M^−1 cm^−1 | 0.90 | Emission Maximum Wavelength λ em ([1]; ethyl acetate): 538 nm; Fluorescence Quantum Yield φF [2, 7]: 0.90; Absorption Maximum Wavelength λ max ([3]; ethyl acetate): 420 nm; Molar Absorption Coefficient ϵ ([3]; ethyl acetate): 2.38 10^4M^−1 cm^−1
– | – | – | – | – | – | – | – | O=P1(c2ccccc2)C(c2ccc(N(c3ccccc3)c3ccccc3)cc2)=Cc2ccc3ccccc3c21 (stereo not shown) [Compound 6d] | 620 nm | 611 nm | 495 nm | 0.58 | 439 nm | 448 nm | 1.94 10^4M^−1 cm^−1 | 440 nm | 1.81 10^4M^−1 cm^−1 | 0.51 | 2.07 10^4M^−1 cm^−1 | 0.92 | Emission Maximum Wavelength λ em ([1]; ethyl acetate): 564 nm; Fluorescence Quantum Yield φF [2, 7]: 0.90; Absorption Maximum Wavelength λ max ([3]; ethyl acetate): 436 nm; Molar Absorption Coefficient ϵ ([3]; ethyl acetate): 2.02 10^4M^−1 cm^−1
– | – | – | – | – | – | – | – | O=P1(c2ccccc2)C2=C(c3ccccc31)C(c1ccccc1)(c1ccccc1)c1cc(N(c3ccccc3)c3ccccc3)ccc12 (stereo not shown) [Compound 7a] | 590 nm | 589 nm | 482 nm | 0.79 | 428 nm | 439 nm | 1.60 10^4M^−1 cm^−1 | 424 nm | 1.60 10^4M^−1 cm^−1 | 0.70 | 1.62 10^4M^−1 cm^−1 | 0.88 | Emission Maximum Wavelength λ em ([1]; ethyl acetate): 540 nm; Fluorescence Quantum Yield φF [2, 7]: 0.90; Resistance to photobleaching (relative absorbance) [4]: outstanding resistance to photobleaching; Absorption Maximum Wavelength λ max ([3]; ethyl acetate): 424 nm; Molar Absorption Coefficient ϵ ([3]; ethyl acetate): 1.61 10^4M^−1 cm^−1

Structure (SMILES) | Emission Maximum Wavelength λ em ([1]; CH2Cl2) | Emission Maximum Wavelength λ em ([1]; DMF) | Emission Maximum Wavelength λ em ([1]; benzene) | Fluorescence Quantum Yield φF [2, 5] | Absorption Maximum Wavelength λ max ([3]; CH2Cl2) | Molar Absorption Coefficient ϵ ([3]; CH2Cl2) | Absorption Maximum Wavelength λ max ([3]; DMF) | Molar Absorption Coefficient ϵ ([3]; DMF) | Emission Maximum Wavelength λ em ([1]; CH3CN) | Emission Maximum Wavelength λ em ([1]; EtOH) | Emission Maximum Wavelength λ em ([1]; cyclohexane) | Fluorescence Quantum Yield φF ([2]; CH3CN, apparatus C11347-01) | Absorption Maximum Wavelength λ max ([3]; CH3CN) | Absorption Maximum Wavelength λ max ([3]; EtOH) | Molar Absorption Coefficient ϵ ([3]; EtOH) | Absorption Maximum Wavelength λ max ([3]; cyclohexane) | Molar Absorption Coefficient ϵ ([3]; cyclohexane) | Fluorescence Quantum Yield φF ([2]; EtOH, apparatus C11347-01) | Molar Absorption Coefficient ϵ ([3]; CH3CN) | Fluorescence Quantum Yield φF [2, 6] | further results
O=P1(c2ccccc2)C(c2ccc(N(c3ccccc3)c3ccccc3)cc2)=Cc2cc3ccccc3cc21 (stereo not shown) [Compound 6b] | 533 nm | – | – | – | 414 nm | 3.66 10^4M^−1 cm^−1 | – | – | 563 nm | 550 nm | 450 nm | 0.80 | 405 nm | 413 nm | 2.67 10^4M^−1 cm^−1 | 409 nm | 4.17 10^4M^−1 cm^−1 | 0.79 | 3.25 10^4M^−1 cm^−1 | 0.90 | Fluorescence Quantum Yield φF ([2]; CH2Cl2, apparatus C11347-01): 0.95; Resistance to photobleaching (relative absorbance) [4]: outstanding resistance to photobleaching
